Series [1] deals with 5HT2B receptor (Homo sapiens, UniProt P41595). Briefly: Standard Lilly selectivity panel, 5HT2B receptor.
For series [2], the target named is T1, mouse D1 receptor (Mus musculus, UniProt Q61616).
T1 construct: expressed in transfected cells; host or cells: HEK293, transient (Fugene HD)
Briefly: cAMP potentiation, transiently expressed mouse D1 receptor in HEK293 cells. The series is classed as cell-based.

The subject of series [3] is wild-type C57Bl/6 mice. Briefly: Locomotor activity (LMA) in wild-type C57Bl/6 mice. The series is classed as in vivo, mouse.
The target of series [4] is T2, rhesus monkey D1 receptor (Macaca mulatta, UniProt O77680).
T2 construct: expressed in transfected cells; host or cells: HEK293, transient (Fugene HD)
Briefly: cAMP potentiation, transiently expressed rhesus monkey D1 receptor in HEK293 cells. The series is classed as cell-based. The following applies: Rhesus D1, transient.

The test system of series [5] is hD1 mice. Description: Locomotor activity (LMA) in hD1 mice. The series is classed as in vivo, mouse. An excerpt:
Male hD1 mice, 8–10 weeks old (weighing 18 to 25 g at the time of the experiment), were used. Monitoring of mouse LMA took place in transparent plastic shoebox cages having dimensions of 45 × 25 × 20 cm, with a 1-cm depth of wood chips for absorbent bedding, and covered with a ventilated filtered plastic cage top.
Cages were placed in a rectangular frame containing a grid of 12 photocell beams in an 8 × 4 configuration (Kinder Scientific, Poway, CA) that were positioned 2.5 cm from the floor of the cage for the detection of body movements (ambulations), which were recorded by computer for analysis. Mice were placed inside individual LMA boxes for 1 hour during an acclimation period. Mice were then dosed with test compounds (oral or subcutaneous) and were replaced inside individual LMA boxes for the start of LMA. Photocell activity (total ambulations) was collected for 60 minutes using software from Hamilton Kinder (Poway, CA).
Calculation of data based on total ambulations was done using Excel (Microsoft, Redmond, WA). Graphing and statistical analysis of data were done using one-way analysis of variance followed by Dunnett’s multiple comparison test using GraphPad Prism.

SMILES strings stand for the structures.

Data on 1 molecule can be found in paper PMC5193077, “An Allosteric Potentiator of the Dopamine D1 Receptor Increases Locomotor Activity in Human D1 Knock-In Mice without Causing Stereotypy or Tachyphylaxis” (The Journal of Pharmacology and Experimental Therapeutics, 2017).

The inhibition is the share of the control response that was lost under treatment. A word on the EC50: it is the concentration needed to bring the measured effect to its halfway point.

T1 sequence (Q61616 whole entry): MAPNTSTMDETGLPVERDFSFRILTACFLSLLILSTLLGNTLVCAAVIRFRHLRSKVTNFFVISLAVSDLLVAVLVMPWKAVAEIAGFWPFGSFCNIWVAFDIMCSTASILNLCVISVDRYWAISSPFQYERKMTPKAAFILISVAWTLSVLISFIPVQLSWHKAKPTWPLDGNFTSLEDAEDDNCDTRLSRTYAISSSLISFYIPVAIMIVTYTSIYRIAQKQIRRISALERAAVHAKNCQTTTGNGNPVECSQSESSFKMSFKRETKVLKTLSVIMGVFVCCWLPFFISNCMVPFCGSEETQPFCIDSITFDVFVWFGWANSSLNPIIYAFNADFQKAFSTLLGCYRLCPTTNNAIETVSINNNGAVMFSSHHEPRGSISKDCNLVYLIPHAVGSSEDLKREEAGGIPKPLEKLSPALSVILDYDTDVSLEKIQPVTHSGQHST
Sequence of 5HT2B receptor (P41595 whole entry): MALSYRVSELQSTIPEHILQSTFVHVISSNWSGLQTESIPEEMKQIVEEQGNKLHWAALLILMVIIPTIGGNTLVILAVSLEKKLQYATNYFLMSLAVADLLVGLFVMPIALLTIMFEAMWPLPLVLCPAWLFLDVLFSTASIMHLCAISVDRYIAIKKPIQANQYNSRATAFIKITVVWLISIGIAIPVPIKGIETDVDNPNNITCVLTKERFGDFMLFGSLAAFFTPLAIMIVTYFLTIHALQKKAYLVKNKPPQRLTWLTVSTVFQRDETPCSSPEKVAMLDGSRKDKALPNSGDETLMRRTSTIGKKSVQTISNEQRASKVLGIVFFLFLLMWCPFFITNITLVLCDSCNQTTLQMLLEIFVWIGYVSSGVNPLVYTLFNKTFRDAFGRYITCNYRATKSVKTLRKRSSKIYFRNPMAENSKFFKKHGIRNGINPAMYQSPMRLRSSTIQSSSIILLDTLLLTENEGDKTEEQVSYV
T2 sequence (O77680 whole entry): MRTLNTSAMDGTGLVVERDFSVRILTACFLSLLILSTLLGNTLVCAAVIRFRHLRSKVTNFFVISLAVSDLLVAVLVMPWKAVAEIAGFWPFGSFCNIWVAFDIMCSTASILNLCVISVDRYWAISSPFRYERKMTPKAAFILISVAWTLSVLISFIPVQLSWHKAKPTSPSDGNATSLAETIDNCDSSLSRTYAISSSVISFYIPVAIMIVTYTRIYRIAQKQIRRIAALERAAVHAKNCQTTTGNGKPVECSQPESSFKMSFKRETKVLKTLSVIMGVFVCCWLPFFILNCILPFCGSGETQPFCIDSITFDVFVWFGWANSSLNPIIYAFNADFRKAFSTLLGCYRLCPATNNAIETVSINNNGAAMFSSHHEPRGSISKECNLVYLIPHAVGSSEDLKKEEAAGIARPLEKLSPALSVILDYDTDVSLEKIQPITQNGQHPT

As for `C[C@H]1c2cccc(C(C)(C)O)c2C[C@H](CO)N1C(=O)Cc1c(Cl)cccc1Cl` [DETQ, 2-(2,6-dichlorophenyl)-1-((1S,3R)-3-(hydroxymethyl)-5-(2-hydroxypropan-2-yl)-1-methyl-3,4-dihydroisoquinolin-2(1H)-yl)ethan-1-one], the “Stimulation at 5HT2B receptor, potentiator mode” value in series [1] (1 µM) is recorded as 5%; in series [1] (10 µM), 48%. For the same molecule, the inhibition at 1 µM in series [1] (1 µM, read-out: Inhibition at 5HT2B receptor, antagonist mode) is 13%. In addition, the inhibition at 10 µM in series [1] (10 µM, read-out: Inhibition at 5HT2B receptor, antagonist mode) came to 56%. The “Loss of potency/affinity at mouse D1 versus human D1” value in series [2] was about 30 fold. Further, the “Top (%)” value is listed as 50.0% in series [2] (Mouse D1, transient) and 80.0% in series [4]. For the same molecule, the 50% effective concentration (EC50) was 312 nM in series [2] (Mouse D1, transient, 0.7 nM dopamine); 12 nM in series [4] (0.7 nM dopamine); 9.2 nM in series [5] (Mus musculus, four-parameter fit, unbound brain concentration, hD1 mice, read-out: EC50 in LMA versus unbound brain levels). The “LMA activity in wild-type mice” value in series [3] (3–20 mg/kg orally) was “inactive in wild-type mice”. In addition, in series [3] (wild-type C57Bl/6 mice, 30 mg/kg oral, P = 0.07, not significant), the “Increase in LMA” value worked out at 32%. Further, the “Overt adverse behavioral effects” value in series [5] (any of the doses (up to 240 mg/kg)) was “no overt adverse behavioral effects were observed”. Further, the “Bottom of LMA versus unbound brain level curve” value in series [5] (four-parameter fit) is 40 % of control. For the same molecule, in series [5] (four-parameter fit), the “Top of LMA versus unbound brain level curve” value is 1,590 % of control. Moreover, in series [5] (hD1 mice, 240 mg/kg oral twice daily), the “LMA response after twice-daily dosing” value is recorded as “No tachyphylaxis”. The “LMA response on repeated once-a-day dosing” value in series [5] (hD1 mice, once daily for 4 days) is “undiminished on day 4”. Further, in series [5] (hD1 mice, DETQ up to 240 mg/kg), the “Shape of LMA dose-response curve” value is given as “did not show any drop-off at higher doses”. Also, in series [5] (habituated hD1 mice, oral), the “ED4X (dose causing a 4-fold increase in LMA)” value is on record as 7.2 mg/kg.
